Measured values reported in BindingDB's records for doi:10.7270/Q2H70D7S (Burnham Center For Chemical Genomics, 2010).

Target: Kappa-type opioid receptor (Homo sapiens, UniProt P41145)
Assay: kappa opioid receptor blockers, cell-based, luminescence, beta-arrestin, SAR follow-up (AID 2285)

Sequence of Kappa-type opioid receptor (P41145 whole entry): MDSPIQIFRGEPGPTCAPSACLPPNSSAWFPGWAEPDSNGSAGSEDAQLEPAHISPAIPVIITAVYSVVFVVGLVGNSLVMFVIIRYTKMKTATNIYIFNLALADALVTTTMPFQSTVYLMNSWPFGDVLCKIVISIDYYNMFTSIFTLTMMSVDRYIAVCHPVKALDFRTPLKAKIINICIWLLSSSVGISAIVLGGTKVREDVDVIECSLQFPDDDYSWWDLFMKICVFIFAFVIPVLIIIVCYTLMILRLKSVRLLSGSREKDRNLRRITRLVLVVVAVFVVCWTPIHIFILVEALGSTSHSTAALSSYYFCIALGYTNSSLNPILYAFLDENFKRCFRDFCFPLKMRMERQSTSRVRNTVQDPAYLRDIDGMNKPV

IC50 [µM]	Compound
3.54	CCC(N=Nc1ccnc2cc(Cl)ccc12)c1ccc(O)cc1 (configuration not stated) [4-[1-[2-(7-chloroquinolin-4-yl)hydrazinyl]propylidene]cyclohexa-2,5-dien-1-one]
10	Oc1ccc(CN=Nc2ccnc3cc(Cl)ccc23)cc1O [(4Z)-4-[[2-(7-chloroquinolin-4-yl)hydrazinyl]methylidene]-2-hydroxycyclohexa-2,5-dien-1-one]
